This note sets out measurements from US20120245155A1, “FUSED HETEROCYCLIC COMPOUND HAVING AMINO GROUP” (Shionogi & Co., Ltd., priority 2009, published 2012).

One data set addresses T1, Recombinant human BACE1 (Homo sapiens, UniProt P56817).
T1 construct: purchased R&D Systems
Put plainly: Assay of BACE 1 inhibiting activity. The format is biochemical. The conditions noted are these: Recombinant human BACE1 7.4 nmol/L, substrate peptide 18 nmol/L, pH 5.0, 30° C., 3 hours; read-out: 50% inhibitory concentration against the enzymatic activity (IC50). On the procedure:
48.5 μL of substrate peptide solution (Biotin-XSEVNLDAEFRHDSGC-Eu: X═ε-amino-n-capronic acid, Eu=Europium cryptate) was added to each well of 96-hole half-area plate (a black plate: Costar), and after addition of 0.5 μl of the test compound (dissolved in […]) and 1 μl of Recombinant human BACE1 (R&D Systems), the reaction mixture was incubated at 30° C. for 3 hours. The substrate peptide was synthesized by reacting Cryptate TBPCOOH mono SMP (CIS bio international) with Biotin-XSEVNLDAEFRHDSGC (Peptide Institute, Inc.). The final concentrations of the substrate peptide and Recombinant human BACE1 were adjusted to 18 nmol/L and 7.4 nmol/L, respectively, and the reaction was performed in sodium acetate buffer (50 mmol/L sodium acetate, pH 5.0, 0.008% Triton X-100).
After the incubation for reaction, 50 μl of 8.0 μg/ml Streptavidin-XL665 (CIS bio international) dissolved in phosphate buffer (150 mmol/L K2 HPO4—KH2PO4, pH 7.0, 0.008% Triton X-100, 0.8 mol/L KF) was added to each well and left stand at 30° C. for an hour. After then, fluorescence intensity was measured (excitation wavelength: 320 nm, measuring wavelength: 620 nm and 665 nm) using Wallac 1420 multilabel counter (Perkin Elmer life sciences). Enzymatic activity was determined from counting ratio of each wavelength (10,000× Count 665/Count 620) and 50% inhibitory concentration against the enzymatic activity was calculated.

The test system of data set [1] is Neuroblastoma SH—SY5Y cells (SH/APPwt) with human wild-type β-APP excessively expressed. Put plainly: Measurement of β-amyloid (Aβ) production inhibitory effect in cell. The format is cell-based. The following applies: 24 hours incubation, Amyloid β 1-40 by HTRF, read-out: amount needed to inhibit Aβ production by 50% (IC50). On the procedure:
Neuroblastoma SH—SY5Y cells (SH/APPwt) with human wild-type p-APP excessively expressed therein were prepared at 8×10^5 cells/mL, and 150 μl portions thereof were inoculated into each well of a 96-well culture plate (Falcon). The cells were cultured for 2 hours at 37° C. in a 5% gaseous carbon dioxide incubator. Then, a solution which had been preliminarily prepared by adding and suspending the test compound (DMSO (dimethyl sulfoxide) solution) so as to be 2 μl/50 μl medium was added to the cell sap. Namely, the final DMSO concentration was 1%, and the amount of the cell culture was 200 μl. After the incubation was performed for 24 hours from the addition of the test compound, 100 μl of the culture supernatant was collected from each fraction. The amount of the Aβ in each fraction was measured.
The Aβ amount was measured as follows. 10 μl of a homogeneous time resolved fluorescence (HTRF) measurement reagent (Amyloid β 1-40 peptide; IBA Molecular Holding, S. A.) and 10 μl of the culture supernatant were put into a 384-well half area microplate (black microplate, Costar) and mixed with each other, and then left standing overnight at 4° C. while the light was shielded. Then, the fluorescence intensity (excitation wavelength: 337 nm, measurement wavelength: 620 nm and 665 nm) was measured with a Wallac 1420 multilabel counter (Perkin Elmer life sciences). The Aβ amount was determined from the count rate at each measurement wavelength (10000× Count 665/Count 620), and the amount needed to inhibit Aβ production by 50% (IC50) was calculated from at least six different dosages.
Background: TR-FRET usually uses a lanthanide donor and a delayed reading to cut background.

The target in data set [2] is T2, CYP3A4 (Homo sapiens, UniProt P08684). Put plainly: CYP3A4 fluorescent MBI test. The class given is in vitro ADME. Further details: host or cells: Escherichia coli. The conditions noted are these: CYP3A4 expressed in Escherichia coli, substrate 7-BFC, pre-reaction 0 or 30 minutes. On the procedure:
The CYP3A4 fluorescent MBI test is a test of investigating enhancement of CYP3A4 inhibition of a compound by a metabolism reaction, and the test was performed using, as CYP3A4 enzyme expressed in Escherichia coli and employing, as an index, a reaction in which 7-benzyloxytrifluoromethylchmarin (7-BFC) is debenzylated by the CYP3A4 enzyme to produce a metabolite, 7-hydroxytrifluoromethylchmarin (HFC) emitting fluorescent light.
The reaction conditions were as follows: substrate, 5.6 μmol/L 7-BFC; pre-reaction time, 0 or 30 minutes; reaction time, 15 minutes; reaction temperature, 25° C. […]
An enzyme in a K-Pi buffer (pH 7.4) and a test drug solution as a pre-reaction solution were added to a 96-well plate at the composition of the pre-reaction, a part of it was transferred to another 96-well plate so that it was 1/10 diluted by a substrate in a K-Pi buffer, NADPH as a co-factor was added to initiate a reaction as an index (without preincubation) and, after a predetermined time of a reaction, acetonitrile/0.5 mol/L Tris(trishydroxyaminomethane)=4/1 was added to stop the reaction. […] For the plate on which each index reaction had been performed, a fluorescent value of 7-HFC which is a metabolite was measured with a fluorescent plate reader. […]

Data set [3] has as its target T2, CYP3A4. Put plainly: CYP inhibition test (terfenadine hydroxylation). The class given is in vitro ADME. Further details: enzyme, pooled human hepatic microsome 0.2 mg protein/mL; from tissue; host or cells: pooled human hepatic microsome. The following applies: pooled human hepatic microsome, test drug concentration 1, 5, 10, 20 μmol/L. How it is done:
(§1) Using commercially available pooled human hepatic microsome, and employing, as markers, 7-ethoxyresorufin O-deethylation (CYP1A2), tolbutamide methyl-hydroxylation (CYP2C9), mephenyloin 4′-hydroxylation (CYP2C19), dextromethorphan O-demethylation (CYP2D6), and terfenadine hydroxylation (CYP3A4) as typical substrate metabolism reactions of human main five CYP enzyme forms (CYP1A2, 2C9, 2C19, 2D6, 3A4), an inhibitory degree of each metabolite production amount by a test compound was assessed. […] After the centrifugation at 3000 rpm for 15 minutes, resorufin (CYP1A2 metabolite) in the supernatant was quantified by a fluorescent multilabel counter and tolbutamide hydroxide (CYP2C9 metabolite), mephenyloin 4′ hydroxide (CYP2C19 metabolite), dextrorphan (CYP2D6 metabolite), and terfenadine alcohol (CYP3A4 metabolite) were quantified by LC/MS/MS. Addition of only DMSO being a solvent dissolving a drug to a reaction system was adopted as a control (100%), remaining activity (%) was calculated at each concentration of a test drug added as the solution and IC50 was calculated by reverse presumption by a logistic model using a concentration and an inhibition rate.

The target of another data set is T3, CYP2D6 (Homo sapiens, UniProt P10635).
T3 construct: enzyme, pooled human hepatic microsome 0.2 mg protein/mL; from tissue; host or cells: pooled human hepatic microsome
T3 sequence (P10635 whole entry): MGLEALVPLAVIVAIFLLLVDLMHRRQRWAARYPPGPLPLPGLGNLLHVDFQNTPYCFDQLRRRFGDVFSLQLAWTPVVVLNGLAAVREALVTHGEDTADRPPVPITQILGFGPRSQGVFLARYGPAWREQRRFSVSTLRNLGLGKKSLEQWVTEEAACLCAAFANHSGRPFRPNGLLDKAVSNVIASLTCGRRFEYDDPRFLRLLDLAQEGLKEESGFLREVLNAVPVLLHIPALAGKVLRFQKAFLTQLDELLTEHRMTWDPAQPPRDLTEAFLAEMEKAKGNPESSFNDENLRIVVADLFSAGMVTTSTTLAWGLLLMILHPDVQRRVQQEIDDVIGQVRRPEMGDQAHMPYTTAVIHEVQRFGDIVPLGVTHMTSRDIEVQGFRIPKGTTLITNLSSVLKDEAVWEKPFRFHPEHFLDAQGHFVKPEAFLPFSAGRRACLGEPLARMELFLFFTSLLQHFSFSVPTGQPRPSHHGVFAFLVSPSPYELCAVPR
Put plainly: CYP inhibition test (dextromethorphan O-demethylation). The conditions noted are these: pooled human hepatic microsome, test drug concentration 1, 5, 10, 20 μmol/L. The class given is in vitro ADME. On the procedure: as §1

A further data set concerns the target T4, CYP2C19 (Homo sapiens, UniProt P33261).
T4 construct: enzyme, pooled human hepatic microsome 0.2 mg protein/mL; from tissue; host or cells: pooled human hepatic microsome
Put plainly: CYP inhibition test (mephenytoin 4'-hydroxylation). The format is in vitro ADME. The following applies: pooled human hepatic microsome, test drug concentration 1, 5, 10, 20 μmol/L. How it is done:
as §1

In the next data set the target is T5, CYP2C9 (Homo sapiens, UniProt P11712).
T5 construct: enzyme, pooled human hepatic microsome 0.2 mg protein/mL; from tissue; host or cells: pooled human hepatic microsome
T5 sequence (P11712 whole entry): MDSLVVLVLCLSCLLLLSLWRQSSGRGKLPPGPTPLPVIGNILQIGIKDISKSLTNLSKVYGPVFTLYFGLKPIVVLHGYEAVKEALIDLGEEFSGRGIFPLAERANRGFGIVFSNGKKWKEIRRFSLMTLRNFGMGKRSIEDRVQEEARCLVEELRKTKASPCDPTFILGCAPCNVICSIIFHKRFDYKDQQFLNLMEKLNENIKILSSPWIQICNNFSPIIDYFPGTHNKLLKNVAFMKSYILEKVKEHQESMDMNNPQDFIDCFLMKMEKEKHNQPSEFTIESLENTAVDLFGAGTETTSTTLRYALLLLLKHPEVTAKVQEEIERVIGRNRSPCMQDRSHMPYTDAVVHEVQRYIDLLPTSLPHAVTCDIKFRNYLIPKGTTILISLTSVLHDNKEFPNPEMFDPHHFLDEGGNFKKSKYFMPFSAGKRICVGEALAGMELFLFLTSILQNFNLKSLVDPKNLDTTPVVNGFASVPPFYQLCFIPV
Put plainly: CYP inhibition test (tolbutamide methyl-hydroxylation). The class given is in vitro ADME. The following applies: pooled human hepatic microsome, test drug concentration 1, 5, 10, 20 μmol/L. On the procedure: as §1

The target in another data set is T6, CYP1A2 (Homo sapiens, UniProt P05177).
T6 construct: enzyme, pooled human hepatic microsome 0.2 mg protein/mL; from tissue; host or cells: pooled human hepatic microsome
T6 sequence (P05177 1-516): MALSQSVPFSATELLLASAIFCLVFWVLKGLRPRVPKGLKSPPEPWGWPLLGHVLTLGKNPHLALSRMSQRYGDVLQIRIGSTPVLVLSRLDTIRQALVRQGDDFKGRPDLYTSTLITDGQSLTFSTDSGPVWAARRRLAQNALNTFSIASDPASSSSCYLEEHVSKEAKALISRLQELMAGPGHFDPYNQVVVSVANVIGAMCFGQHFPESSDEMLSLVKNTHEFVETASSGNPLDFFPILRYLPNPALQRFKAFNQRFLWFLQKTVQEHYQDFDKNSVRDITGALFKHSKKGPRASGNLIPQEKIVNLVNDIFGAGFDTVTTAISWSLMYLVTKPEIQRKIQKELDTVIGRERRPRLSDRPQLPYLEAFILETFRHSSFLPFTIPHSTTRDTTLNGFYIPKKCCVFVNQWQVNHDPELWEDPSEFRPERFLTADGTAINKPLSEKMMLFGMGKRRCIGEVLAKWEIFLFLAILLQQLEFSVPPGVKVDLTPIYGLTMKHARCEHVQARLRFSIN
Put plainly: CYP inhibition test (7-ethoxyresorufin O-deethylation). The class given is in vitro ADME. The following applies: pooled human hepatic microsome, test drug concentration 1, 5, 10, 20 μmol/L. On the procedure:
as §1

Each structure is given as a SMILES string.

T1 sequence (P56817 46-501): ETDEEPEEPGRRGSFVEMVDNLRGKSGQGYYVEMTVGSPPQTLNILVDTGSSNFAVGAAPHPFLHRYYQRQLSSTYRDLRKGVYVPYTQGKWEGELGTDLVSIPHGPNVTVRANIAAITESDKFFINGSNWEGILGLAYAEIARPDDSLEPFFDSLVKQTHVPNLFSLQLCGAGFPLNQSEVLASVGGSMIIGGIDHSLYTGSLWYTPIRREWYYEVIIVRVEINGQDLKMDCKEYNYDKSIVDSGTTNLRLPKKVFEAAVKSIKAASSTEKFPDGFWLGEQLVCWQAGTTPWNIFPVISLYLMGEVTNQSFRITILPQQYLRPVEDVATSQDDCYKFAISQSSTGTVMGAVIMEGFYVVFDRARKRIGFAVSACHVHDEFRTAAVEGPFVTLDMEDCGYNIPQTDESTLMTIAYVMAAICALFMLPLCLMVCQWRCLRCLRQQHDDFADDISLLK
T2 sequence (P08684 whole entry): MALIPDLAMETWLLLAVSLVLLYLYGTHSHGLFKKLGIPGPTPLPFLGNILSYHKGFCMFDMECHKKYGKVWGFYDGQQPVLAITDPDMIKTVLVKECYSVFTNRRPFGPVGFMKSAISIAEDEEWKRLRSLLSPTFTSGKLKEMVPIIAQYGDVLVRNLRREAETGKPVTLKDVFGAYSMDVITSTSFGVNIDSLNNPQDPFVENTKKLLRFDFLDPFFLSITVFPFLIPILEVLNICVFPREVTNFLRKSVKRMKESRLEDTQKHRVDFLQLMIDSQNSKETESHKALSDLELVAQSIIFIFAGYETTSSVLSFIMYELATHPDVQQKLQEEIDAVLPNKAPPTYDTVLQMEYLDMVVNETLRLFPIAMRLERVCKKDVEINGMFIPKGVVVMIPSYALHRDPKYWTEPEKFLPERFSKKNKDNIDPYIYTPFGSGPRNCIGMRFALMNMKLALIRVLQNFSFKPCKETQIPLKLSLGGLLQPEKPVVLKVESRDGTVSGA
T4 sequence (P33261 whole entry): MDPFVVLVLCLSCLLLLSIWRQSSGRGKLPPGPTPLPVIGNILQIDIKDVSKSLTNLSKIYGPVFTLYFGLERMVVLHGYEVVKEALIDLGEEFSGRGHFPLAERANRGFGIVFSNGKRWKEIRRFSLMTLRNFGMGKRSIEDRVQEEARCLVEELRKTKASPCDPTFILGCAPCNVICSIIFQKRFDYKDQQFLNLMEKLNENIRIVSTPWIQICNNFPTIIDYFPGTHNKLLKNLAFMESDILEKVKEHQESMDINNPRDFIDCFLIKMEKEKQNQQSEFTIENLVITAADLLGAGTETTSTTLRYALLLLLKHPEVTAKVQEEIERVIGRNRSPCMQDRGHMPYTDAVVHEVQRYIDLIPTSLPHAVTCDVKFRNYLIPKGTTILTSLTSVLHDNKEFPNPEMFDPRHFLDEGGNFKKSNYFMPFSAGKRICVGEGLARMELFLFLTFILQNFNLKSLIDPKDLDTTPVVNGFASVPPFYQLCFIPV

`N#Cc1ccc(C(=O)Nc2ccc(F)c(C34CCCC3COC(N)=N4)c2)nc1` (racemic) [Compound I-38]: the IC50 (on Recombinant human BACE1; in data set [1]) was no more than 1 µM in each case.
On to `COc1cncc(-c2ccc(F)c(C34COCC3COC(N)=N4)c2)c1` (racemic) [Compound I-44], for which, at CYP3A4 [2], the “CYP3A4 MBI: difference of IC50 value with and without preincubation” value is “(−) (When the difference was 3 μM or less, the result was defined as (−))”. In addition, the IC50 in data set [1] is no more than 1 µM.
For the compound `NC1=NC2(c3cc(NC(=O)c4ccc(OC(F)F)cn4)ccc3F)CCCC2CO1` (stereo not drawn) [Compound I-46], the IC50 in data set [1] was no more than 1 µM.
On the same count and under the same terms, the same measure for `NC1=NC2(c3cc(-c4cncc(Cl)c4)ccc3F)COCC2CO1` (racemic) [Compound I-45]: no more than 1 µM; for `Cc1cnc(C(=O)Nc2ccc(F)c(C34COCC3COC(N)=N4)c2)cn1` (racemic) [Compound I-34]: no more than 1 µM.
On the same count and under the same terms, the same measure for `CC#CCOc1cnc(C(=O)Nc2ccc(F)c(C34COCC3COC(N)=N4)c2)cn1` (racemic) [Compound I-37]: 0.001 µM.
In the case of `C=C1SC(N)=NC2(c3cc(NC(=O)c4ccc(C#N)cn4)ccc3F)COCC12` (racemic) [Compound I-3], the values for the IC50 (at Recombinant human BACE1; in data set [1]) were 0.029 µM and no more than 1 µM, respectively.
The matching figures for `COc1cnc(C(=O)Nc2ccc(F)c(C34COCC3COC(N)=N4)c2)cn1` (racemic) [Compound I-35]: no more than 1 µM and no more than 1 µM.
For the compound `NC1=NC2(c3cc(NC(=O)c4ccc(Cl)cn4)ccc3F)COCC2CO1` (racemic) [Compound I-36], the IC50 (at Recombinant human BACE1; in data set [1]) was no more than 1 µM each time.
`COc1cncc(-c2ccc(F)c(C34CCCC3COC(N)=N4)c2)c1` (racemic) [Compound I-41]: the IC50 in data set [1] was no more than 1 µM.
For the compound `NC1=NC2(c3cc(-c4cccnc4F)ccc3F)CCCC2CO1` (racemic) [Compound I-40], the IC50 in data set [1] is no more than 1 µM.
In the case of `N#Cc1ccc(C(=O)Nc2ccc(F)c(C34COCC3COC(N)=N4)c2)nc1` (racemic) [Compound I-33], the IC50 against CYP3A4 [3] was greater than 20 µM; at CYP2D6, greater than 20 µM; against CYP2C19, greater than 20 µM; at CYP2C9, greater than 20 µM; on Recombinant human BACE1 it was no more than 1 µM; at CYP1A2 it was greater than 20 µM. In data set [1], the IC50 is no more than 1 µM.
Turning to `CNC(=O)c1ccc(-c2ccc(F)c(C34COCC3COC(N)=N4)c2)cn1` (racemic) [Compound I-43], the IC50 in data set [1] was no more than 1 µM.
